Measured values published in ChEMBL document CHEMBL1141850, “Glucosidation of betulinic acid by Cunninghamella species” (1999).
In brackets after ≈: the same amount, converted by molar mass.

Legend:
Format in all cases: functional
Details in all cases: read-out: ED50 (the source's name)
[1] = Cytotoxicity against human MEL3 cells
[2] = Cytotoxicity against human MEL1 cells
[3] = Cytotoxicity against human MEL7 cells
[4] = Cytotoxicity against human MEL2 cells

With `C=C(C)[C@@H]1CC[C@]2(C(=O)O[C@@H]3O[C@H](CO)[C@@H](O)[C@H](O)[C@H]3O)CC[C@]3(C)[C@H](CC[C@@H]4[C@@]5(C)CC[C@H](O)C(C)(C)[C@@H]5CC[C@]43C)[C@@H]12` the EC50 [1] was over 20 µg/mL, the EC50 [2] was over 20 µg/mL and the EC50 [3] was over 20 µg/mL. The EC50 [4] was over 20 µg/mL.
Compound `C=C(C)[C@@H]1CC[C@]2(C(=O)O)CC[C@]3(C)[C@H](CC[C@@H]4[C@@]5(C)CC[C@H](O)C(C)(C)[C@@H]5CC[C@]43C)[C@@H]12` [BETULINIC ACID] has an EC50 [1] of 1.8 µg/mL (≈ 3.94 µM), an EC50 [2] of 1.4 µg/mL (≈ 3.07 µM) and an EC50 [3] of 4.4 µg/mL (≈ 9.63 µM). For the same compound, the EC50 [4] was 1.2 µg/mL (≈ 2.63 µM).
